Test results: patent EP4238973A1, “SUBSTITUTED 1,2,4-THIADIAZOLYL ISONICOTINAMIDES, SALTS OR N-OXIDES THEREOF AND THEIR USE AS HERBICIDALLY ACTIVE SUBSTANCES” (Bayer AG, priority 2022, dated 2023)

Legend:
Format in all cases: in vivo
Kochia scoparia = assay: Herbicidal post-emergence action; settings: visual assessment after ca. 3 weeks vs untreated controls
Excerpt: (§1) Seeds of mono- and dicotyledonous weed plants were sown in plastic pots (double sowings with one species of mono- and one species of dicotyledonous weed plants per pot), in sandy loam, covered with soil and grown under controlled growth conditions. 2 to 3 weeks after sowing, the test plants were sprayed in the single-leaf stage. The compounds according to the invention, formulated in the form of wettable powders (WP) or as emulsifiable concentrates (EC), were sprayed onto the green plant parts as an aqueous suspension or as an emulsion, with the addition of 0.5% of an additive, at an application rate of 600 litres of water per hectare (converted). The test plants were placed in the greenhouse for ca. 3 weeks under optimum growth conditions, and then the effect of the preparations is assessed visually in comparison with untreated controls (herbicidal effect in percent (%): 100% effect = plants have died, 0% effect = as control plants).
as §1, with “(EC), are” for “(EC), were”, “controls (herbicidaleffectinpercent(%):100%effect=plantshavedied,0%effect=ascontrolplants). [formula]” for “controls (herbicidal effect in percent (%): 100% effect = plants have died, 0% effect = as control plants).”

Amaranthus retroflexus [1] = assay: Herbicidal post-emergence action; settings: visual assessment after ca. 3 weeks vs untreated controls
Excerpt: as §1
as §1, with “(EC), are” for “(EC), were”, “controls (herbicidaleffectinpercent(%):100%effect=plantshavedied,0%effect=ascontrolplants). [formula]” for “controls (herbicidal effect in percent (%): 100% effect = plants have died, 0% effect = as control plants).”

Alopecurus myosuroides [2] = assay: Herbicidal post-emergence action; settings: 1280 g/ha, visual assessment after ca. 3 weeks vs untreated controls
Excerpt: as §1
as §1, with “(EC), are” for “(EC), were”, “controls (herbicidaleffectinpercent(%):100%effect=plantshavedied,0%effect=ascontrolplants). [formula]” for “controls (herbicidal effect in percent (%): 100% effect = plants have died, 0% effect = as control plants).”

Setaria viridis = assay: Herbicidal post-emergence action; settings: 1280 g/ha, visual assessment after ca. 3 weeks vs untreated controls
Excerpt: as §1
as §1, with “(EC), are” for “(EC), were”, “controls (herbicidaleffectinpercent(%):100%effect=plantshavedied,0%effect=ascontrolplants). [formula]” for “controls (herbicidal effect in percent (%): 100% effect = plants have died, 0% effect = as control plants).”

Matricaria inodora [3] = assay: Herbicidal post-emergence action; settings: visual assessment after ca. 3 weeks vs untreated controls
Excerpt: as §1
as §1, with “(EC), are” for “(EC), were”, “controls (herbicidaleffectinpercent(%):100%effect=plantshavedied,0%effect=ascontrolplants). [formula]” for “controls (herbicidal effect in percent (%): 100% effect = plants have died, 0% effect = as control plants).”

Stellaria media [4] = assay: Herbicidal post-emergence action; settings: visual assessment after ca. 3 weeks vs untreated controls
Excerpt: as §1
as §1, with “(EC), are” for “(EC), were”, “controls (herbicidaleffectinpercent(%):100%effect=plantshavedied,0%effect=ascontrolplants). [formula]” for “controls (herbicidal effect in percent (%): 100% effect = plants have died, 0% effect = as control plants).”

Poa annua [5] = assay: Herbicidal post-emergence action; settings: 1280 g/ha, visual assessment after ca. 3 weeks vs untreated controls
Excerpt: as §1
as §1, with “(EC), are” for “(EC), were”, “controls (herbicidaleffectinpercent(%):100%effect=plantshavedied,0%effect=ascontrolplants). [formula]” for “controls (herbicidal effect in percent (%): 100% effect = plants have died, 0% effect = as control plants).”

Veronica persica = assay: Herbicidal post-emergence action; settings: visual assessment after ca. 3 weeks vs untreated controls
Excerpt: as §1
as §1, with “(EC), are” for “(EC), were”, “controls (herbicidaleffectinpercent(%):100%effect=plantshavedied,0%effect=ascontrolplants). [formula]” for “controls (herbicidal effect in percent (%): 100% effect = plants have died, 0% effect = as control plants).”

Lolium rigidum [6] = assay: Herbicidal pre-emergence action; settings: visual grading after ca. 3 weeks vs untreated controls
Excerpt: (§2) Seeds of mono- and dicotyledonous weed plants were sown in plastic pots (double sowings with one species of mono- and one species of dicotyledonous weed plants per pot), in sandy loam, and covered with soil. The compounds according to the invention, formulated in the form of wettable powders (WP) or as emulsifiable concentrates (EC), were applied to the surface of the covering soil as an aqueous suspension or as an emulsion, with the addition of 0.5% of an additive, at an application rate of 600 litres of water per hectare (converted). Following treatment, the pots were placed in a greenhouse and kept under optimum growth conditions for the test plants. The visual grading of the damage to the test plants is carried out after ca. 3 weeks in comparison to untreated controls (herbicidal effect in percent (%): 100% effect = plants have died, 0% effect = as control plants). Seeds of mono- and dicotyledonous weed plants were sown in plastic pots (double sowings with one species of mono- and one species of dicotyledonous weed plants per pot), in sandy loam, and covered with soil. The compounds according to the invention, formulated in the form of wettable powders (WP) or as emulsifiable concentrates (EC), were applied to the surface of the covering soil as an aqueous suspension or as an emulsion, with the addition of 0.5% of an additive, at an application rate of 600 litres of water per hectare (converted). Following treatment, the pots were placed in a greenhouse and kept under optimum growth conditions for the test plants. The visual grading of the damage to the test plants is carried out after ca. 3 weeks in comparison to untreated controls (herbicidal effect in percent (%): 100% effect = plants have died, 0% effect = as control plants).

Matricaria inodora [7] = assay: Herbicidal pre-emergence action; settings: 1280 g/ha, visual grading after ca. 3 weeks vs untreated controls
Excerpt: as §2

Stellaria media [8] = assay: Herbicidal pre-emergence action; settings: 1280 g/ha, visual grading after ca. 3 weeks vs untreated controls
Excerpt: as §2

Poa annua [9] = assay: Herbicidal pre-emergence action; settings: visual grading after ca. 3 weeks vs untreated controls
Excerpt: as §2

Abutilon theophrasti = assay: Herbicidal post-emergence action; settings: 1280 g/ha, visual assessment after ca. 3 weeks vs untreated controls
Excerpt: as §1
as §1, with “(EC), are” for “(EC), were”, “controls (herbicidaleffectinpercent(%):100%effect=plantshavedied,0%effect=ascontrolplants). [formula]” for “controls (herbicidal effect in percent (%): 100% effect = plants have died, 0% effect = as control plants).”

Digitaria sanguinalis = assay: Herbicidal post-emergence action; settings: visual assessment after ca. 3 weeks vs untreated controls
Excerpt: as §1
as §1, with “(EC), are” for “(EC), were”, “controls (herbicidaleffectinpercent(%):100%effect=plantshavedied,0%effect=ascontrolplants). [formula]” for “controls (herbicidal effect in percent (%): 100% effect = plants have died, 0% effect = as control plants).”

Lolium rigidum [10] = assay: Herbicidal post-emergence action; settings: 1280 g/ha, visual assessment after ca. 3 weeks vs untreated controls
Excerpt: as §1
as §1, with “(EC), are” for “(EC), were”, “controls (herbicidaleffectinpercent(%):100%effect=plantshavedied,0%effect=ascontrolplants). [formula]” for “controls (herbicidal effect in percent (%): 100% effect = plants have died, 0% effect = as control plants).”

Amaranthus retroflexus [11] = assay: Herbicidal pre-emergence action; settings: 1280 g/ha, visual grading after ca. 3 weeks vs untreated controls
Excerpt: as §2

Alopecurus myosuroides [12] = assay: Herbicidal pre-emergence action; settings: 1280 g/ha, visual grading after ca. 3 weeks vs untreated controls
Excerpt: as §2

Compound | herbicidal effect in percent (%), KCHSC (Kochia scoparia; 1280 g/ha) [%] | herbicidal effect in percent (%), AMARE (Amaranthus retroflexus [1]; 1280 g/ha) [%] | herbicidal effect in percent (%), ALOMY (Alopecurus myosuroides [2]) [%] | herbicidal effect in percent (%), SETVI (Setaria viridis) [%] | herbicidal effect in percent (%), MATIN (Matricaria inodora [3]; 320 g/ha) [%] | herbicidal effect in percent (%), MATIN (Matricaria inodora [3]; 1280 g/ha) [%] | herbicidal effect in percent (%), STEME (Stellaria media [4]; 1280 g/ha) [%] | herbicidal effect in percent (%), POAAN (Poa annua [5]) [%] | herbicidal effect in percent (%), VERPE (Veronica persica; 1280 g/ha) [%] | herbicidal effect in percent (%), LOLRI (Lolium rigidum [6]; 1280 g/ha) [%] | herbicidal effect in percent (%), MATIN (Matricaria inodora [7]) [%] | herbicidal effect in percent (%), STEME (Stellaria media [8]) [%] | herbicidal effect in percent (%), POAAN (Poa annua [9]; 1280 g/ha) [%] | herbicidal effect in percent (%), ABUTH (Abutilon theophrasti) [%] | also measured
O=C(Nc1ncns1)c1cc(F)ncc1Br [Example I-027, 5-bromo-2-fluoro-N-(1,2,4-thiadiazol-5-yl)pyridine-4-carboxamide] | 90 | 90 | 90 | 90 | 90 | 90 | 90 | 90 | 90 | 100 | 90 | 100 | 90 | – | herbicidal effect in percent (%), LOLRI (Lolium rigidum [6]; 320 g/ha): 90%; herbicidal effect in percent (%), POAAN (Poa annua [9]; 320 g/ha): 90%
O=C(Nc1ncns1)c1cc(Cl)ncc1OC(F)(F)F [Example 1-012, 2-chloro-N-(1,2,4-thiadiazol-5-yl)-5-(trifluoromethoxy)pyridine-4-carboxamide] | 90 | 100 | – | 90 | – | 100 | 100 | 90 | 100 | 100 | – | – | 90 | 90 | –
O=C(Nc1ncns1)c1cc(Cl)ncc1Cl [Example I-011] | 100 | 100 | 100 | – | 100 | 100 | 100 | 90 | 100 | 90 | 100 | 90 | 100 | 90 | herbicidal effect in percent (%), KCHSC (Kochia scoparia; 320 g/ha): 90%; herbicidal effect in percent (%), DIGSA (Digitaria sanguinalis; 320 g/ha): 90%; herbicidal effect in percent (%), DIGSA (Digitaria sanguinalis; 1280 g/ha): 100%; herbicidal effect in percent (%), LOLRI (Lolium rigidum [10]): 90%; herbicidal effect in percent (%), AMARE (Amaranthus retroflexus [1]; 320 g/ha): 90%; herbicidal effect in percent (%), STEME (Stellaria media [4]; 320 g/ha): 90%; herbicidal effect in percent (%), VERPE (Veronica persica; 320 g/ha): 90%; herbicidal effect in percent (%), AMARE (Amaranthus retroflexus [11]): 90%; herbicidal effect in percent (%), ALOMY (Alopecurus myosuroides [12]): 90%
